Results published in patent US10039741B2, “Use of delta tocopherol for the treatment of lysosomal storage disorders” (The United States of America, as represented by the …, priority 2010, dated 2018).
“Also recorded” adds a separate entry of the source.

What was measured:
Wolman disease cells = assay: Amplex-red cholesterol assay (total cholesterol), combination therapy; format: cell-based, human
Text: (1) Amplex-red cholesterol assay. This biochemical assay (Invitrogen) uses cholesterol oxidase and a HRP-Amplex-re reporting system to measure the free cholesterol level in cells. With the addition of acid lipase to this assay, that hydrolyzes cholesterol ester to free cholesterol, the level of total cholesterol in cells including the cholesterol ester can be measured. This assay was used for detecting the total cholesterol level of in fibroblasts from patients with Wolman disease.

[1] = system: Wolman disease fibroblasts; assay: Lysotracker staining assay; format: cell-based, human
NPCD MSC cells = assay: Free cholesterol accumulation; format: cell-based, human
Protocol: (§1) The adipose mesenchymal stem cells (HMSC.AD-100, HMSC-NPC22 and HMSC-NPC23) were isolated from two NPC patients as well as one heath individual and provided by Celleng-tech (Coralville, Iowa). These cells were maintained in MSC expansion media (Celleng-tech, cat# HMSC.E.Media-450) supplemented with 10% FBS 100 unit/ml penicillin and 100 μg/ml streptomycin at 5% CO2, 37° C. For neural differentiation, cells were initially plated at 30% confluency (˜2500 cells/cm^2) using MSC expansion media. After 24 hours, MSC expansion media were withdrew. Cells were washed twice with Dulbecco's phosphate Buffer saline (Invitrogen) and incubated with neural differentiation media (Celleng-tech, cat# NEU.D.Media-450) supplemented with 10% FBS, 100 unit/ml penicillin and 100 μg/ml streptomycin at 5% CO2, 37° C. for additional 3 days.
(§2) MSC cells were seeded on coverslips on day 0 in MSC expansion medium. On day 1, cells were washed twice with warm PBS buffer and then incubated with MSC neuronal differentiation medium. On day 4, media were replaced with fresh neuronal differentiation medium. On day 6, cells were fixed with 3.2% paraformaldehyde in HBSS for 15 min. Immunocytochemistry for neuronal beta III tubulin and unesterified cholesterol (filipin staining) was performed as described. The coverslips were examined y a XXX microscope. […]

NPC1 = assay: Protein expression (Western blot); format: cell-based, human; details: NPC fibroblasts
Protocol: Cell lysates were prepared as previously described (31) and proteins in lysates were quantified using Bicinchoninic Acid (BCA) Protein Assay Kit (Sigma-Aldrich). Samples were heated at 65C for 10 min before resolved by SDS-PAGE under reducing conditions. Proteins were transferred to PVDF membranes (Bio-Rad Laboratory) using either Criterion Blotter (Bio-Rad Laboratory) or iBlot dry blotting devices (Invitrogen). For NPC1 and HMG-CoA reductase detection, rabbit polyclonal antibodies against NPC1 (Abcam, cat #ab36983, 1:2000) or HMG-CoA reductase (Millipore, cat #07-457, 1:1000) were used, respectively. A peroxidase-conjugated donkey anti-rabbit IgG (Santa Cruz) was used as secondary antibody at a 1:500 dilution.

[2] = system: Farber disease fibroblasts; assay: Lysotracker staining assay; format: cell-based, human
neuron-like NPCD cells = assay: Filipin staining co-stained with neuronal beta III tubulin; format: cell-based, human; details: neuron-like cells differentiated from NPCD patient MSC
Protocol: as §1, §2

NPC fibroblasts = assay: Microarray gene expression; format: cell-based, human; set-up: HMGCR expression, Toco treat NPC / SC4MOL expression, Toco treat NPC / DHCR7 expression, Toco treat NPC / MMP3 expression, Toco treat NPC: unit not given here; details: 40 μM delta-tocopherol 5 days vs DMSO-treated
Protocol: Five NPC fibroblast cell lines as well as five normal fibroblast cell lines were treated with 40 μM delta-tocopherol for 5 days with a medium change and sully of fresh compound on 3rd day. The total RNAs was prepared as the standard method described previously ( ). The microarray gene expression experiment was carried out in a core microarray facility at NHGRI with a set of AAAAA chips (Affymetrix). Partek Genomics Software Suite (Copyright, Partek Inc.) was used to perform analysis of microarray data. Affymetrix cell files were loaded into the software using the RMA algorithm, which involved background correction, quantile normalization, log-2 transformation, and median polish summarization. PCA and hierarchical clustering identified one sample as an outlier. This sample (sample number 12) was not considered for further analysis. ANOVA was performed to identify the differentially expressed genes for three comparisons: 1) NPC_DMSO vs WT_DMSO 2) NPC tocopherol-treated vs NPC_DMSO-treated and 3) WT_tocopherol-treated vs WT_DMSO-treated.

NPCD fibroblasts = assay: Filipin cholesterol staining assay; format: cell-based, human; details: NPCD patient cells
Protocol: Filipin dye staining was used to determine the level of free cholesterol accumulation in cells (27, 28). Cells were seeded at 1000 cells/well in 100 μl medium in the black/clear bottom, tissue culture treated 96-well plates (Greiner Bio-One, Monroe, N.C.) for culture overnight or in a designated time. The cells were washed twice with the HBBS buffer and fixed with 100 μl/well 3.2% formaldehyde at room temperature for 30 minutes. After three times of plate wash with PBS buffer, cells were stained with 50 μg/ml filipin, which was freshly-dissolved in DMSO at 10 mg/ml and then diluted in PBS buffer. Samples were then washed twice with PBS buffer and stored in 4° C. On the day of imaging, cells were stained with 2 μM of CellMask Red (Invitrogen, H32711) in PBS at room temperature for 1 h. Samples were viewed and photographed using a Nikon Eclipse Ti microscope with a 20× objective equipped with CCD camera. DAPI filter and TRITC filter were used to visualize filipin and CellMask Red, respectively. The images were processed by Adobe Photoshop.

[3] = system: Tay-Sachs disease fibroblasts; assay: Lysotracker staining assay; format: cell-based, human
[4] = human plasma, physiological level; cited from earlier work

SMILES: Cc1cc(O)cc2c1O[C@](C)(CCC[C@H](C)CCC[C@H](C)CCCC(C)C)CC2 [δ-tocopherol]
- cholesterol level, sole therapy (Wolman disease cells; 40 μM delta-tocopherol or 80 μM alpha-tocopherol alone): cholesterol reduction effect
- cholesterol level, combination (Wolman disease cells; delta-tocopherol 10 μM combined with 10 μM MBCD): cholesterol reduction effect
- interaction of delta-tocopherol and cyclodextrin (Wolman disease cells; sub-effective concentrations combined): synergetic or additive effect
- size of enlarged lysosomes [1]: significantly reduced
- accumulated free cholesterol (NPCD MSC cells): reduction of accumulated free cholesterol
- expression of NPC-1 protein (NPC1): not changed
- expression of NPC-1 protein (NPC1; listed as Delta-tocopherol): did not change
- size of enlarged lysosomes [2]: significantly reduced
- cholesterol accumulation (neuron-like NPCD cells): significant reduction
- ABCA1 expression, Toco treat NPC (NPC fibroblasts): significantly reduced; also recorded: decreased expression
- ACACA expression, Toco treat NPC (NPC fibroblasts): −1.5
- DHCR7 expression, Toco treat NPC (NPC fibroblasts): −1.7
- FADS2 expression, Toco treat NPC (NPC fibroblasts): −2.5
- FRRS1 expression, Toco treat NPC (NPC fibroblasts): 1.1
- HMGCR expression, Toco treat NPC (NPC fibroblasts): decreased
- HMGCS1 expression, Toco treat NPC (NPC fibroblasts): −1.9
- INSIG1 expression, Toco treat NPC (NPC fibroblasts): −1.8
- LDLR expression, Toco treat NPC (NPC fibroblasts): significantly reduced; also recorded: decreased expression
- MMP1 expression, Toco treat NPC (NPC fibroblasts): 2.7
- MMP3 expression, Toco treat NPC (NPC fibroblasts): 1.7
- NOX4 expression, Toco treat NPC (NPC fibroblasts): −1.1
- SC4MOL expression, Toco treat NPC (NPC fibroblasts): −1.4
- SCD expression, Toco treat NPC (NPC fibroblasts): decreased
- SREBF1 expression, Toco treat NPC (NPC fibroblasts): −1.4
- SREBF2 expression, Toco treat NPC (NPC fibroblasts): −1.6
- ABCA1 expression, Toco treat NPC (NPC fibroblasts; listed as tocopherol): −2.0
- HMGCR expression, Toco treat NPC (NPC fibroblasts; listed as tocopherol): −1.7
- LDLR expression, Toco treat NPC (NPC fibroblasts; listed as tocopherol): −2.0
- SCD expression, Toco treat NPC (NPC fibroblasts; listed as tocopherol): −3.9
- free cholesterol accumulation (filipin staining) (NPCD fibroblasts): significantly reduced
- size of enlarged lysosomes [3]: significantly reduced
- plasma concentration [4]: ~100 nM
